Test systems include MDA-MB-231; CAKI-1; HCT-15; BT-549; MOLT-4; HOP-62; COLO 205; A549; SK-MEL-2; SNB-75; ACHN; NCI-H460; OVCAR-4; IGROV-1; MDA-MB-435; NCI-H23; 786-0; A498; DU-145; K562.
Holding throughout (assay): NCI tumour cell line growth inhibition, 48 h

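48-hour exposure; five concentrations; linearly interpolated endpoints. Abbreviation: GI50, concentration required for 50% inhibition of growth.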 The source made the active and inactive calls. Cut-off read from the data, not from the text of the source: active = GI50 up to about 1.1 µM and inactive = higher. A value given as a limit tells only on which side of the number the result lay.

On to `CCOC(=O)CCC(NC(=O)C(N)Cc1ccc(N(CCCl)CCCl)cc1)C(=O)OCC` (stereo not given), for which the GI50 in the experiment on MDA-MB-231 was 1.69 µM (inactive); with CAKI-1, 0.327 µM (active); in the experiment on HCT-15 it was 0.538 µM; with BT-549, 4.66 µM (inactive); in the experiment on MOLT-4, 0.0451 µM (active); in the experiment on HOP-62 it was 1.79 µM (inactive). Besides, the GI50 in the experiment on COLO 205 was 0.735 µM (active); in the experiment on A549, 2.72 µM (inactive); with SK-MEL-2, 3.01 µM (inactive); in the experiment with SNB-75, 0.733 µM (active); in the experiment with ACHN it was 0.0532 µM (active); in the experiment on NCI-H460, 0.0406 µM (active). Besides, the GI50 is 0.624 µM (active) in the experiment on OVCAR-4; 1.17 µM (inactive) in the experiment on IGROV-1; 1.49 µM (inactive) with MDA-MB-435; 0.43 µM (active) in the experiment on NCI-H23; 0.475 µM (active) in the experiment with 786-0; 32.1 µM (inactive) with A498. Further, the GI50 is 0.249 µM (active) in the experiment with DU-145 and 0.446 µM (active) in the experiment on K562.

In the case of `O=C(O)c1ccccc1C(=O)OCC1CCCN2CCCCC12` (stereo not given), the GI50 is > 100 µM (inactive) in the experiment on MDA-MB-231; > 100 µM (inactive) in the experiment on CAKI-1; greater than 100 µM in the experiment with HCT-15; > 100 µM (inactive) with BT-549; > 100 µM (inactive) in the experiment on MOLT-4; > 100 µM (inactive) in the experiment on HOP-62. For the same molecule, the GI50 in the experiment with COLO 205, in the experiment with A549, with SK-MEL-2, with SNB-75, in the experiment on ACHN and in the experiment on NCI-H460 was > 100 µM (inactive) throughout. Moreover, the GI50 with OVCAR-4, in the experiment with IGROV-1, in the experiment on MDA-MB-435, with NCI-H23, in the experiment with 786-0 and with A498 was > 100 µM (inactive) each time. Further, the GI50 in the experiment on DU-145 and in the experiment with K562 was > 100 µM (inactive) each time.

Regarding `CN1CC=C(c2c(N)nc(N)[nH]c2=O)CC1`, the GI50 with MDA-MB-231 is > 100 µM (inactive); with CAKI-1, > 100 µM (inactive); in the experiment on HCT-15, greater than 100 µM; in the experiment on BT-549, > 100 µM (inactive); in the experiment with MOLT-4, > 100 µM (inactive); with HOP-62 it was > 100 µM (inactive). In addition, the GI50 is > 100 µM (inactive) in the experiment with COLO 205; > 100 µM (inactive) with A549; > 100 µM (inactive) in the experiment on SK-MEL-2; 65.6 µM (inactive) in the experiment on SNB-75; > 100 µM (inactive) in the experiment on ACHN; > 100 µM (inactive) in the experiment with NCI-H460. In addition, the GI50 in the experiment on OVCAR-4, in the experiment on IGROV-1, in the experiment with MDA-MB-435, in the experiment on NCI-H23, in the experiment on 786-0 and in the experiment on A498 was > 100 µM (inactive) throughout. Besides, the GI50 with DU-145 and in the experiment with K562 was > 100 µM (inactive) throughout.

With `O=C1C(Cl)=C(N2CCN(C3=C(Cl)C(=O)c4ccccc4C3=O)CC2)C(=O)c2ccccc21`, the GI50 in the experiment on MDA-MB-231 was 1.64 µM (inactive); in the experiment with CAKI-1, 1.79 µM (inactive); in the experiment on HCT-15, 1.61 µM; in the experiment with BT-549, 1.73 µM (inactive); with MOLT-4, 0.232 µM (active); in the experiment on HOP-62, 12.4 µM (inactive). For the same molecule, the GI50 with COLO 205 was 1.69 µM (inactive); in the experiment on A549, 12.1 µM (inactive); in the experiment with SK-MEL-2 it was 1.74 µM (inactive); with SNB-75, 2.86 µM (inactive); in the experiment with ACHN, 1.64 µM (inactive); in the experiment with NCI-H460, 3.54 µM (inactive). Moreover, the GI50 with OVCAR-4 is 1.58 µM (inactive); in the experiment on IGROV-1 it was 1.91 µM (inactive); in the experiment on MDA-MB-435, 1.86 µM (inactive); in the experiment with NCI-H23, 1.58 µM (inactive); in the experiment with 786-0, 1.82 µM (inactive); in the experiment on A498, 3.49 µM (inactive). Also, the GI50 with DU-145 is 4.91 µM (inactive); in the experiment with K562 it was 0.121 µM (active).

For the origin of these results see ChEMBL document CHEMBL1201862, “PubChem BioAssay data set” (2004).
